Laboratory results taken from patent publication US20130011411A1, “METHODS AND COMPOSITIONS FOR THE DIAGNOSIS, PROGNOSIS, AND TREATMENT OF CANCER” (priority 2010, published 2013).

Test system: breast cancer cell lines
Assay: DACH1 mRNA expression after methylation inhibitor treatment
Assay type: cell-based
Conditions: different breast cancer cell lines; data not shown
Excerpt: DNA methylation is a common mechanism leading to tumor suppressor inactivation.

Q: `Nc1ncn([C@H]2C[C@H](O)[C@@H](CO)O2)c(=O)n1` [5-aza-2′-deoxycytidine] was tested. Which “DACH1 mRNA expression” value did it give?
A: induced DACH1 mRNA expression
